The test system of series [1] is MAPK signaling (phospho-MEK1/2, phospho-ERK1/2) in AM-38 cells. The experiment in a line: Immunoblotting of MEK1/2 and ERK1/2 phosphorylation, AM-38. The following applies: AM-38, 1 h of treatment. The format is cell-based. The protocol:
Immunoblotting. Cells were lysed using RIPA buffer containing phosphatase (BioVision) and protease inhibitor cocktail (Calbiochem). Protein concentration was determined using the BCA assay (Pierce). Cell lysates containing […] of protein were loaded into each lane of 4% to 20% gradient gels (Bio-Rad) for SDS-PAGE. Proteins were transferred onto PDVF membrane for Western blot analysis. Blots were blocked with BSA for one hour followed by incubation with primary antibody overnight (dilution according to manufacturer's protocols), and then secondary antibody was incubated for one hour. Blots were then imaged with a ChemiDoc Touch (Bio-Rad) after incubation with SuperSignal West Pico Solution (ThermoFischer) following manufacturer's protocols. All antibodies were purchased from Cell Signaling Technology: p-ERK (9101S), ERK (4695S), p-MEK (9121S), MEK (8727S), vinculin (13901S) Rabbit IgG-HRP (7074), […] (5125).
On the technique in general: Immunoblotting shows a protein as a band on a membrane.

Series [2] in a line: Blood-brain barrier penetrance, brain and serum levels after single IV injection. The class given is in vivo. Particulars: CD-1, mouse, 60 min after single 25 mg/kg IV injection, read-out: brain-to-serum ratio. As for the experimental part: Blood-brain barrier penetrance P-gp in vivo assays. All experimental procedures were reviewed and approved by the University of Illinois Institutional Animal Care and Use Committee (Protocol number: 19191). CD-1 mice were purchased from Charles River and acclimated for 4-7 days before use. Mice were administered elacridar or its vehicle at 2.5 mg/kg via lateral tail vein injection. Thirty-minutes post injection, mice were then treated with compounds at 25 mg/kg intravenously now in the other tail vein. At each time point, mice were sacrificed and blood was collected by lacerating the right auricle with iris scissors. An 18-gauge angiocatheter was inserted through the left ventricle, and all residual circulatory volume was removed by perfusing 0.9% saline solution via an analog peristaltic pump. Brains were harvested from the cranial vault and flash frozen. Blood samples were centrifuged at 13,000 ref for 10 minutes and the supernatant serum was stored at −80° C. until analysis. Brain samples were homogenized in ice-cold methanol and centrifuged first at 2000 ref for three minutes and then 13,000 ref for ten minutes and supernatant and tissue debris were separated and stored at −80° C. The resultant supernatant and serum were analyzed by LC-MS/MS to determine compound concentrations. […] All compounds were administered at 5 mL/kg.

Another series relates to cell lines with WTBRAF. The experiment in a line: Cell viability, cell lines with WT BRAF. The format is cell-based. The protocol: Cell Culture and reagents. All cell lines were grown in a 37° C., 5% CO2, humidified environment, in media containing 1% penicillin/streptomycin. Cell culture conditions are as follows: MDCK cells transfected with MDR1 (or ABCB1) were obtained from the Netherlands Cancer Institute (Amsterdam, The Netherlands) and maintained in DMEM with 10% fetal bovine serum (FBS, Gemini). Traditional cell lines A375, CHL-1, B16F10, and U118MG were grown in DMEM with 10% FBS, SK-MEL-28, U87 and T98G in EMEM with 10% FBS, AM-38 in EMEM with 20% HI-FBS (Gibco), HT29 in McCoy's 5A with 10% FBS, HCT116 in RPMI with 10% FBS. Compounds were dissolved in DMSO (1% final concentration, Sigma-Aldrich) for cell culture studies.
Cell viability assays. Cells were harvested, seeded in a 96-well plate and allowed to adhere overnight. Compound was added to each well in DMSO (1% final concentration). Cells were incubated for 72 hours before viability was assessed by the Alamar Blue Assay. Raptinal ([…]) was used as a dead control.

The next series concerns the target T1, P-gp (Homo sapiens, UniProt P08183).
T1 construct: host or cells: MDCK (MDR1-MDCK)
The experiment in a line: MDR1-MDCK P-gp transwell bidirectional transport assay. The format is in vitro ADME. Particulars: for Papp A→B at 90 min, 10 µM / Papp B→A at 90 min, 10 µM / efflux ratio at 90 min, 10 µM / Papp at 90 min, 10 µM: dog; for Papp A→B at 90 min, 10 µM / Papp B→A at 90 min, 10 µM / efflux ratio at 90 min, 10 µM: MDCK-MDR1, MDR1-MDCK; for efflux ratio at 90 min, 10 µM: read-out: ER (efflux ratio) (converted); for Papp at 90 min, 10 µM: MDCK-MDR1, range of Papp A-B to B-A, read-out: cell culture permeabilities; for ER (efflux ratio) / Papp A-B / Papp B-A: MDR1-MDCK; for Papp A→B at 90 min, 10 µM / Papp B→A at 90 min, 10 µM / efflux ratio at 90 min, 10 µM / ER (efflux ratio) / Papp A-B / Papp B-A: 10 μM, 90 min. Put shortly:
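MDR1-MDCK monolayers grown 80-96 h on transwell filters; compounds at 10 μM final (1% DMSO) incubated 90 min at 37 °C with shaking, in apical-to-basolateral and basolateral-to-apical directions. Donor and receiver samples quantified by LC-MS/MS; monolayer integrity checked with Lucifer Yellow. Permeability and efflux ratio calculated.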

Series [3] concerns A375 melanoma cells intracranially implanted. The experiment in a line: A375 intracranial mouse model of melanoma metastasis. The following applies: 50 mg/kg IP once a day, two 5-day cycles, 10 doses. The class given is in vivo.
Procedure: Number of mice per cohort n>3. […] (C) Evaluation of everafenib in an intracranial mouse model. 50,000 A375 melanoma cells were intracranially implanted into 7-week old female athymic nude mice. Five days after inoculation, mice were treated with the vehicle or 50 mg/kg of dabrafenib or everafenib intraperitoneal (IP) once a day for 5 days. After 2 days off, another five daily doses were administered, a total of 10 treatments in the model. Cells were tested to be free of pathogens prior to inoculation. […] Number of mice per cohort=6. Statistical significance was determined by a two-tailed log-rank (Mantel-Cox) test. **P<0.01 ***P<0.001 ****P<0.0001.
Such a model has been developed using intracranial implantation of the A375 melanoma cell line, and thus, this macro-metastatic model via injection of A375 cells to the mouse forebrain was used to assess everafenib and dabrafenib head-to-head. In the experiment, mice were intracranially implanted with A375 cells and then 5 days later were treated with 50 mg/kg of dabrafenib or everafenib (two cycles of once-per-day for 5 days via IP injection, a total of 10 doses).
In vivo efficacy model. […] Human melanoma A375 cells were intracranially implanted in 7-week-old female athymic nude mice (50,000 cells/mouse). Cells were tested to be free of pathogens prior to inoculation. […]

Molecules are shown by their SMILES.

T1 sequence (P08183 whole entry): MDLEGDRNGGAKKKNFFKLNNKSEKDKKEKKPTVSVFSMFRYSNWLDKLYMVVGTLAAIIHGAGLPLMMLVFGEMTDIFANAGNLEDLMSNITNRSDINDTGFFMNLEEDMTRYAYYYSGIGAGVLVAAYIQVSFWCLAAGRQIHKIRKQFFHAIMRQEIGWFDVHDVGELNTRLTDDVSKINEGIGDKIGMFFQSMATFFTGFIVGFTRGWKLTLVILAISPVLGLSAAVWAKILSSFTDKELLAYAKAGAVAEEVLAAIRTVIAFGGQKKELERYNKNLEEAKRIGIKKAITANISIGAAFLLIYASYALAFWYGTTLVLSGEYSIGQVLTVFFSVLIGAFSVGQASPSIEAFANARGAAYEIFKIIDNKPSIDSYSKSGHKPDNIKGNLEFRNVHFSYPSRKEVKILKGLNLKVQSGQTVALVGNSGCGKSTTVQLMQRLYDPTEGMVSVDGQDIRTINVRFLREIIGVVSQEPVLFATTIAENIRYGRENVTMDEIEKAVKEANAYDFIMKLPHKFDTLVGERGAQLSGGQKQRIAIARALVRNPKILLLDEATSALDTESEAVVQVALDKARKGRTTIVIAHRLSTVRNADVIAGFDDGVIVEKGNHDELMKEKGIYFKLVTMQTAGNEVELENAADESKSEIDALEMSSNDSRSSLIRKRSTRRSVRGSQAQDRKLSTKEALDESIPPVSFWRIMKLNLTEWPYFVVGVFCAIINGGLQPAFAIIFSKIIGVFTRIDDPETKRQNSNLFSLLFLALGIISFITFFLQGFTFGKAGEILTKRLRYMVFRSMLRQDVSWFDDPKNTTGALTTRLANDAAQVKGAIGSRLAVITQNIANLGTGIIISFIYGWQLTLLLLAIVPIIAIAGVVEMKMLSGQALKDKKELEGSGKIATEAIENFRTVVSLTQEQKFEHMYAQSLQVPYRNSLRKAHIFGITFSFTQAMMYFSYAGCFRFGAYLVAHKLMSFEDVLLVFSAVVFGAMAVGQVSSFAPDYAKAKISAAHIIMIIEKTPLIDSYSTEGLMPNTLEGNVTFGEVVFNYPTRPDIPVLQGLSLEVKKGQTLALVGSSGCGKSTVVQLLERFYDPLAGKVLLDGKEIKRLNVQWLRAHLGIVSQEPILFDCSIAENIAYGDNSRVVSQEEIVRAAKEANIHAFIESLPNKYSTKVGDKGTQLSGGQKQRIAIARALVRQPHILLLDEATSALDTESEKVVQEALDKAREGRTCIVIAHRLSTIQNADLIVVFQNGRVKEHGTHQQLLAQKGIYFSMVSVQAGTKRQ

As to `CCCS(=O)(=O)Nc1cc(Cl)cc(-c2nc(C(C)(C)C)sc2-c2ccnc(N)n2)c1F` [6-261, N-(3-(5-(2-aminopyrimidin-4-yl)-2-(tert-butyl)thiazol-4-yl)-5-chloro-2-fluorophenyl)propane-1-sulfonamide], in series [1], the “inhibition of MAPK signaling (MEK1/2 and ERK1/2 phosphorylation)” value is given as “strongly inhibited”. In addition, the Kp at 60 min in series [2] worked out at 0.286. Further, in the series with cell lines with WTBRAF, the IC50 – broadly, the concentration that gives 50% inhibition – is above 1000 nM. The “activity against glioma cell-lines with WTBRAF (U118MG, T98G, U87)” value with cell lines with WTBRAF (cell culture) is “no activity”. In addition, on P-gp, the apical-to-basolateral permeability (Papp A→B) – broadly, how fast a substance crosses the layer from the apical side – at 90 min, 10 µM was 4.92 ± 0.806 ×10⁻⁶ cm/s; the apparent permeability from basolateral to apical (Papp B→A) (usually the apparent permeability from the basolateral to the apical side of a cell layer) at 90 min, 10 µM stood at 6.42 ± 2.45 ×10⁻⁶ cm/s; the efflux ratio at 90 min, 10 µM is 1.4; the Papp at 90 min, 10 µM is 4.9 to 6.4 ×10⁻⁶ cm/s. In series [3], this compound yielded a median survival of 50.5 days.
For `CCCS(=O)(=O)Nc1cc(Cl)cc(-c2nc(C(C)(C)C)sc2-c2ccnc(NCCCCC(=O)O)n2)c1F` [6-263, 5-((4-(2-(tert-butyl)-4-(5-chloro-2-fluoro-3-(propylsulfonamido)phenyl)thiazol-5-yl)pyrimidin-2-yl)amino)pentanoic acid], in series [1], the “inhibition of MAPK signaling (MEK1/2 and ERK1/2 phosphorylation)” value is listed as “strongly inhibited”. For the same compound, the Kp at 60 min in series [2] lay in the range of 0.0014 to 0.0069. In the series on cell lines with WTBRAF, the IC50 is above 1000 nM. Moreover, at P-gp, the apical-to-basolateral permeability (Papp A→B) at 90 min, 10 µM came out at 2.15 ± 0.07 ×10⁻⁶ cm/s; the apparent permeability from basolateral to apical (Papp B→A) at 90 min, 10 µM worked out at 2.49 ± 0.435 ×10⁻⁶ cm/s; the efflux ratio at 90 min, 10 µM was 1.17; the Papp at 90 min, 10 µM is 2.2 to 2.5 ×10⁻⁶ cm/s.
As for `CC(C)(C)c1nc(-c2cccc(NS(=O)(=O)c3c(F)cccc3F)c2F)c(-c2ccnc(N)n2)s1` [Dabrafenib, reference compound], the entries for the “ER (efflux ratio)” value at P-gp and on P-gp (listed as dabrafenib) were 17.94 ± 6.97 and 17.9, respectively. The “Papp A-B” value is 1.26 ± 0.672 ×10⁻⁶ cm/s at P-gp and 1.257 ± 0.672 ×10⁻⁶ cm/s on P-gp (listed as 6-74). Moreover, the “Papp B-A” value was 13.2 ± 1.63 ×10⁻⁶ cm/s at P-gp and 13.192 ± 1.632 ×10⁻⁶ cm/s on P-gp (listed as 6-74). The compound also showed a median survival in series [3] of 39 days.

Source of the values: patent US20250230151A1, “COMPOUNDS FOR CANCERS DRIVEN BY BRAF MUTATION” (THE BOARD OF TRUSTEES OF THE UNIVERSITY OF ILLINOIS, priority 2021, published 2025).
